The structures appear in SMILES notation.

Results on 82 molecules are retold here after the METLIN SMRT retention time set (Domingo-Almenara et al. 2019).

The data set is described as follows: gradient 5% acetonitrile 3 min, to 50% in 2 min, to 85% in 15 min, held 3 min, 100 µL/min. The conditions noted are these: column: Zorbax Extend-C18 2.1 x 50 mm; eluents: water / acetonitrile, 0.1% formic acid. In outline: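 Retention times of pure standards were taken from adduct peaks that were selected by computer and manually inspected. Over 3 months, mixtures of ~100 molecules were run by HPLC–quadrupole time-of-flight mass spectrometry in positive and negative ionization mode. The Zorbax Extend-C18 column (2.1 × 50 mm, 1.8 μm) ran at 100 μL/min in water and acetonitrile, each containing 0.1% formic acid, with 40 μL dead volume and 900 μL dwell volume.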
Take `O=C(NCCc1cccc(F)c1)C1CC(=O)N(c2n[nH]c3cccc(F)c23)C1` (configuration not stated): the RP-LC retention time amounted to 720 s.

`COc1ccccc1-c1nc(-c2cn(-c3cccc(Cl)c3)nn2)no1` returned an RP-LC retention time of 1050 s.

For the molecule `CCN(Cc1cn(C)nc1C)C(=O)C1CN(C(=O)c2ccccc2)CC12CCCCC2` (configuration not stated), the RP-LC retention time came out at 793 s.

On to `COCC(=O)Oc1c(Sc2ccc(C)cc2)c(C)nn1-c1ccccc1`, for which the RP-LC retention time was 854 s.

Take `CCN1c2cc(F)ccc2C(=O)NC12CCN(C(=O)c1cccc(OC)c1)CC2`: the RP-LC retention time was determined as 756 s.

For `Cc1nnc2ccc(N3CCOCC3)nn12`, the RP-LC retention time was 600 s.

`CCOC(=O)c1noc2nc(C)nc(N3CCc4ccccc4C3)c12` showed an RP-LC retention time of 1120 s.

In the case of `O=C(c1cccc(-n2cnnn2)c1)N1CCN(Cc2nc(-c3ccc(F)cc3)cs2)CC1`, the RP-LC retention time is 666 s.

In turn, `CC(C)c1ccc(OCC(O)Cn2c(C3CC3)nc3ccccc32)cc1` (configuration not stated) had an RP-LC retention time of 788 s.

Take `O=C(c1ccccc1[N+](=O)[O-])N1c2nc(-c3ccccc3)nn2C2(CCCCC2)[C@@H]2CCCC[C@@H]21`: the RP-LC retention time was determined as 755 s.

Molecule `COc1ccc(C(=O)Nc2nsc(-c3ccccc3)n2)cc1` registered an RP-LC retention time of 778 s.

The molecule `CCc1ccc(CNC(=O)CN2C(=O)C3CCCCN3c3ccc(S(=O)(=O)N(C)C)cc32)cc1` (configuration not stated) showed an RP-LC retention time of 975 s.

In turn, `CCNC(=O)c1cc(C(C)(C)C)[nH]n1` showed an RP-LC retention time of 647 s.

`Cc1ccccc1-c1noc(Cn2ccn(-c3ccccc3)c(=O)c2=O)n1` came in with an RP-LC retention time of 834 s.

In the case of `NC(=O)/C(=C\c1ccncc1)c1cccc2ccccc12`, the RP-LC retention time was determined as 647 s.

Molecule `Cc1nc(-c2ccc(C(F)(F)F)cc2)ncc1C(=O)NCCc1cccs1` came in with an RP-LC retention time of 1120 s.

As to `CCN1CCN(C(=O)CSc2nccnc2Sc2ccccc2)CC1`, the RP-LC retention time amounted to 640 s.

The molecule `CC1=C(c2ccccc2)S(=O)(=O)N=C1N1CCCN(C(=O)Nc2cccc(C)c2)CC1` yielded an RP-LC retention time of 709 s.

Take `COC(=O)c1c(C)sc(-c2c(-c3ccc(Br)cc3)[nH]c3[nH]c(=O)[nH]c(=O)c23)c1O`: the RP-LC retention time was determined as 791 s.

Take `O=C(c1ccc2cc[nH]c2c1)N1CCC(c2nc(C3CC3)n[nH]2)CC1`: the RP-LC retention time amounted to 546 s.

As to `Cc1ccc(-c2nc3ccccc3[nH]2)cc1NC(=O)CC(C)C`, the RP-LC retention time is 656 s.

Consider `CCn1cc(CN2CCC(C(=O)NCc3cccc(Cl)c3)CC2)c2cc(OC)ccc21`, for which the RP-LC retention time worked out at 744 s.

On to `Cc1cc(C)n(-c2ccnc(N3CCC(C(N)=O)CC3)n2)n1`, for which the RP-LC retention time turned out to be 586 s.

Turning to `COC(=O)c1ccccc1Nc1c(-c2ccc(N(C)C)cc2)nc2cnccn12`, the RP-LC retention time was 921 s.

The molecule `CC(=O)N1CCc2sc(C(=O)N3CCN(c4ccccc4)CC3)cc2C1` came in with an RP-LC retention time of 732 s.

In turn, `Cc1ccsc1C1C2=C(CC(C)(C)CC2=O)OC2=C1C(=O)CC(C)(C)C2` gave an RP-LC retention time of 1090 s.

Take `O=C(NCC1(c2cccs2)CC1)c1ccc(F)c(F)c1`: the RP-LC retention time was 887 s.

The molecule `CN1C(=O)c2cccnc2Sc2cc(C(=O)N3CCc4ccccc43)ccc21` yielded an RP-LC retention time of 789 s.

`O=C(Nc1ccc(-c2nc(-c3ccc(F)cc3)no2)cc1)c1ccco1`: the RP-LC retention time was found to be 1100 s.

On to `COc1cc2c(cc1C(=O)NCCc1c[nH]c3ccccc13)OCCCO2`, for which the RP-LC retention time is 859 s.

In the case of `O=C(NCC1(CO)CC1)c1cccc(C(F)(F)F)c1`, the RP-LC retention time was determined as 691 s.

`O=C(Cc1nnc(-c2cnccn2)o1)NCc1ccc(Cl)cc1` showed an RP-LC retention time of 698 s.

For `Cc1noc(C)c1C1CCCN1C(=O)Cc1ccccc1Cl` (configuration not stated), the RP-LC retention time is 806 s.

In turn, `CNC(=O)C1CN(C(=O)Cc2c[nH]c3ccccc23)CC12CCCC2` (configuration not stated) gave an RP-LC retention time of 596 s.

As to `CN1CCc2nnc(C3CCCN3C(=O)Nc3cc(Cl)cc(Cl)c3)n2CC1` (configuration not stated), the RP-LC retention time worked out at 566 s.

Turning to `COc1ccc(-c2nc(N3CCCCC3)c3ccccc3n2)cc1`, the RP-LC retention time worked out at 777 s.

Molecule `O=C(Nc1ccccc1C(F)(F)F)N1CCN(c2nc3c(F)cc(F)cc3s2)CC1` gave an RP-LC retention time of 942 s.

In turn, `COC(=O)c1ccc2c(c1)N(Cc1cccc(F)c1)C(=O)CS2=O` (configuration not stated) displayed an RP-LC retention time of 744 s.

`COc1ccc(Cc2nc(-c3cccc(-c4ccn[nH]4)c3)no2)cc1OC` returned an RP-LC retention time of 830 s.

`O=C(O)c1ccc(Cn2cnc3ccccc32)o1` displayed an RP-LC retention time of 512 s.

In the case of `OCCNCc1ccc(-c2ccc(Cl)cc2Cl)o1`, the RP-LC retention time came to 642 s.

For the molecule `O=C1CC(c2nc(-c3ccccc3)no2)CN1c1ccc2c(c1)OCCO2` (configuration not stated), the RP-LC retention time stood at 933 s.

`CCN(CC)S(=O)(=O)c1cc(-c2nnc(-c3ccccc3OC)o2)ccc1C` returned an RP-LC retention time of 1030 s.

`O=C(NCc1ccc2c(c1)OCO2)c1cn(-c2cc(N3CCCC3)ncn2)cn1` gave an RP-LC retention time of 775 s.

`CCN(CC)CCNCc1ccc(-c2ccccc2F)o1` had an RP-LC retention time of 562 s.

As for `CCCNC(=O)NCCC1CCN(S(=O)(=O)c2ccccc2)CC1`, the RP-LC retention time came to 753 s.

Regarding `CCCOc1nc2ccccc2nc1N1CCCC(C(=O)NCc2ccccc2Cl)C1` (configuration not stated), the RP-LC retention time was 1270 s.

In turn, `CCCOc1nc2ccccc2nc1N1CCCC(C(=O)NC2CCCCC2)C1` (configuration not stated) registered an RP-LC retention time of 1260 s.

For the molecule `O=C(Cn1c2c(c(=O)n(C3CCCCC3)c1=O)CCC2)NCc1ccc2c(c1)OCO2`, the RP-LC retention time is 799 s.

Turning to `Cc1ccc2c(Nc3cc(F)cc(F)c3)c(C(=O)N3CCSCC3)cnc2n1`, the RP-LC retention time amounted to 645 s.

As to `CCn1cc(-c2ccc(F)cc2)cc1C(=O)NCc1ccccn1`, the RP-LC retention time was 722 s.

Molecule `CCn1ccc(-c2nc(-c3ccc4c(c3)ncn4CCC(=O)N3CCCC3)no2)n1` had an RP-LC retention time of 642 s.

On to `O=C(c1ccc(Cl)s1)N1CCC(n2cnnc2C2CC2)CC1`, for which the RP-LC retention time stood at 664 s.

As for `O=C(c1cccs1)N1CC(C(=O)N2CCN(c3ccccc3Cl)CC2)C1`, the RP-LC retention time amounted to 788 s.

The molecule `O=S(=O)(c1ccc(F)c(F)c1)N1CCc2nc(-c3ccccc3)ncc2C1` yielded an RP-LC retention time of 1090 s.

On to `COc1ccc(Cl)cc1NC(=O)CN1C(=O)CC(C)Sc2ccccc21` (configuration not stated), for which the RP-LC retention time came out at 926 s.

With `Cc1scc2nc(C(=O)NCc3ccc(F)cc3)nc(N(C)C)c12`, the RP-LC retention time was determined as 780 s.

On to `Cc1cncc(CN2CCC(=C3c4ccc(Cl)cc4CCc4cccnc43)CC2)c1`, for which the RP-LC retention time came out at 659 s.

`CCN1C(=O)C(CC(=O)NC2CCCCC2)Sc2ncccc21` (configuration not stated) showed an RP-LC retention time of 743 s.

Turning to `Cc1ccc(CNC(=O)C2CCCN(c3cnc4nc(C)c(C)nc4c3)C2)cc1` (configuration not stated), the RP-LC retention time was 741 s.

As to `CCOc1cc2c(cc1OCC)C1C(C(=O)NCCOC)c3ccccc3C(=O)N1CC2` (configuration not stated), the RP-LC retention time was determined as 744 s.

`c1ccc(-c2nnc3sc(-c4ccc5c(c4)OCO5)nn23)nc1` displayed an RP-LC retention time of 759 s.

Regarding `CSc1cccc(NC(=O)Cn2c(=O)cc(-c3nc(C(C)C)no3)c3ccccc32)c1`, the RP-LC retention time came to 928 s.

Turning to `CCOC(=O)C(NC(=O)C1CCCN1C(=O)OCc1ccccc1)C(=O)OCC` (configuration not stated), the RP-LC retention time is 855 s.

In the case of `COc1ccc(-c2ccc(=O)n(Cc3nc(-c4cccc(Cl)c4)no3)n2)cc1OC`, the RP-LC retention time worked out at 976 s.

`O=C1C(N2CCN(S(=O)(=O)c3ccccc3Cl)CC2)CCN1CCc1ccccc1` (configuration not stated) yielded an RP-LC retention time of 672 s.

In the case of `CNC(=O)c1cc(NC(=O)C2CCC2)cc2nc(C)ccc12`, the RP-LC retention time came to 558 s.

`C=CCNS(=O)(=O)c1c(C)[nH]c(=O)[nH]c1=O` displayed an RP-LC retention time of 582 s.

Take `O=C(NCc1ccccc1)NCC1Cn2cccc2C(=O)N1Cc1ccccc1` (configuration not stated): the RP-LC retention time worked out at 782 s.

For `COc1ccc(Cl)cc1Nc1ccnc2c1c(=O)n(C)c(=O)n2C`, the RP-LC retention time came out at 951 s.

In turn, `Cc1cccc(C(=O)N2CCc3nc[nH]c3C2)c1` yielded an RP-LC retention time of 569 s.

The molecule `Cc1ccc2c(Nc3ccc4c(c3)OCO4)c(-c3nc(C4CC4)no3)cnc2n1` displayed an RP-LC retention time of 736 s.

`Cc1ccc(NC(=O)Cn2nc3c(N4CCN(c5ccccc5C)CC4)nccn3c2=O)cc1` yielded an RP-LC retention time of 1080 s.

The molecule `Cc1cccc(-c2noc(CSc3nccn3-c3ccccc3)n2)c1` yielded an RP-LC retention time of 969 s.

The molecule `CCOC(=O)N1CCN(c2cc(C(=O)O)c3cc(NC(=O)c4ccc(OC)cc4)ccc3n2)CC1` displayed an RP-LC retention time of 630 s.

`O=C(CCc1c(-c2ccc(Cl)cc2)nc2ccccn12)NCc1ccccc1F` registered an RP-LC retention time of 688 s.

In the case of `Cc1sc(-c2cc(C(F)(F)F)on2)cc1S(=O)(=O)N1CCCCC1`, the RP-LC retention time turned out to be 1210 s.

Consider `CCN(CC)CCCNC(=O)c1noc2c1CCCC2`, for which the RP-LC retention time was 607 s.

Turning to `O=C(c1nnn(Cc2ccc(Cl)cc2)c1-n1cccc1)N1CCSCC1`, the RP-LC retention time was 981 s.

As to `O=C(Nc1ccc(Cl)cc1F)c1cc(C2CC2)on1`, the RP-LC retention time turned out to be 1090 s.

As to `CCc1ccc(-n2c(CN3CCN(C(=O)NCCCOC)CC3)nc3cccnc32)cc1`, the RP-LC retention time stood at 634 s.

In turn, `CC(C)N1CCC(CCNC(=O)C2CN(C(=O)c3ccncc3)CC23CCCCC3)CC1` (configuration not stated) came in with an RP-LC retention time of 567 s.
